{"source": "paper PMC10582678", "about": "(Clinical and Translational Science, 2023)", "origin": "cited, not measured here", "target": "BTK (Homo sapiens, UniProt Q06187)", "sequence (Q06187 whole entry)": "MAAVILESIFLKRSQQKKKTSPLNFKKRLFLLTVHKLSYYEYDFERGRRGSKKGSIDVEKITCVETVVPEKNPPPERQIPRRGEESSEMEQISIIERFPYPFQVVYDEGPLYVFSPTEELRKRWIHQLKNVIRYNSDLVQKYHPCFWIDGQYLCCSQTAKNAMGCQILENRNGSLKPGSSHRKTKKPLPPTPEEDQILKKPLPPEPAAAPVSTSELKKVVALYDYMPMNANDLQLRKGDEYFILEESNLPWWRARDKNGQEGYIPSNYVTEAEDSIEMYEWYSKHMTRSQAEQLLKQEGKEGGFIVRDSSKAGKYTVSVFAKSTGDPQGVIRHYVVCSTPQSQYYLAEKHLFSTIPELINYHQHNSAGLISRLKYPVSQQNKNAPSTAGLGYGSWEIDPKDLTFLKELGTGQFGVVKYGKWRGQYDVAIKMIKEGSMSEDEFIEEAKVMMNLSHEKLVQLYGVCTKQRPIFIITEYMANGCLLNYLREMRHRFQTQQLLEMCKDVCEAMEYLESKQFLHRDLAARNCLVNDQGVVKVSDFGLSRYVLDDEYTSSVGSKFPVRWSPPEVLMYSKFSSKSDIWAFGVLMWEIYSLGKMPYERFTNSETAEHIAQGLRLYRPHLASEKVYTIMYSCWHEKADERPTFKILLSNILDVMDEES", "conditions": "cited from earlier work", "note": "Where two headings read alike, the source gives them in different places."}
{"compound": "CC#CC(=O)N1CCC[C@H]1c1nc(-c2ccc(C(=O)Nc3ccccn3)cc2)c2c(N)nccn12", "note": "[acalabrutinib]", "values": [{"measurement": "BTK receptor occupancy rate", "setting": "twice daily dosing regimen", "result": 96, "unit": "%"}]}
{"compound": "C=CC(=O)Nc1cccc(Nc2nc(Nc3ccc(OCCOC)cc3)ncc2F)c1", "note": "[spebrutinib]", "values": [{"measurement": "BTK receptor occupancy rate", "setting": "b.i.d., patients with rheumatoid arthritis", "result": 88, "unit": "%"}]}
